By inhibition is commonly meant the relative decrease from the control value, in per cent.

These results are taken from PMC10254170, “Diastereoselective Synthesis of the Borylated D-Galactose Monosaccharide 3-Boronic-3-Deoxy-D-Galactose and Biological Evaluation in Glycosidase Inhibition and in Cancer for Boron Neutron Capture Therapy (BNCT)” (Molecules, 2023).

The target in assay [1] is T1, bovine liver β-glucuronidase (Bos taurus, UniProt A3KMY8).
T1 construct: purchased Sigma-Aldrich Co; host or cells: bovine liver
T1 sequence (A3KMY8 1-652): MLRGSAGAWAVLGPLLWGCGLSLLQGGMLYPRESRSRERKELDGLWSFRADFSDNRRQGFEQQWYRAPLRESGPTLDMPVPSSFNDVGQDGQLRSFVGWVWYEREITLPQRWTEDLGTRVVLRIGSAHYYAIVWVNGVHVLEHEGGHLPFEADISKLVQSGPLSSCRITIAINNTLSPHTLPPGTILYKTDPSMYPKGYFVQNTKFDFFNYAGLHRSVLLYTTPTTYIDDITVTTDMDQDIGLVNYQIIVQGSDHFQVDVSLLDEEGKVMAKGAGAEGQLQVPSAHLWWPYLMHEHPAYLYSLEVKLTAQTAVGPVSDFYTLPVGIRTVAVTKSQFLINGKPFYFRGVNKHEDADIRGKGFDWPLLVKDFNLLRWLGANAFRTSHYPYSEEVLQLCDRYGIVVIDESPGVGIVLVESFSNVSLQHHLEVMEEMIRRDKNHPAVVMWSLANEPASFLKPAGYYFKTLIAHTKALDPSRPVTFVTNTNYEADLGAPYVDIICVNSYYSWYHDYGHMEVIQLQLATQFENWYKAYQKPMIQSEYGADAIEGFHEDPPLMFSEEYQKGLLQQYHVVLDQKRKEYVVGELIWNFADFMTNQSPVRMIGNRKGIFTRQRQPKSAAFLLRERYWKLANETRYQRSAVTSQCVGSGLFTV
Briefly: Glycosidase inhibition, bovine liver β-glucuronidase. The class given is biochemical. The source says: (§1) Glycosidase modulation studies need to explore selectivity as well as potency. Our drugs and controls are therefore screened against a panel of glycosidases in methanol (Table 1) to identify the glycosidase-related disease area(s), selectivity profile, and potency of biological action for each drug. The presence of organic boron covalently bonded to the drug structure also grants a reduced toxicity profile. Following the glycosidase inhibition range recommendations, an IC50 value >250 μm denotes weak inhibition, 100–249 μm denotes moderate inhibition, 10–99 μm good inhibition, 0.1–9 μm potent inhibition, and <0.1 μm very potent inhibition. […] Our boronated D-galactose 7 represents a novel lead in glycosidase inhibition.
(§2) The glycosidases screened are the following: rice α-glucosidase, yeast α-glucosidase, Bacillus α-glucosidase, rat intestinal maltase α-glucosidase, almond β-glucosidase, bovine liver β-glucosidase, coffee beans α-galactosidase, bovine liver β-galactosidase, Jack bean α-mannosidase, snail β-mannosidase, Penicillium decumbens α-L-rhamnosidase, bovine kidney α-L-fucosidase, Eschierichia coli β-glucuronidase, bovine liver β-glucuronidase, porcine kidney trehalase, Aspergillus niger amyloglucosidase, and bovine kidney N-acetyl-β-glucosaminidase. The disease areas for each glycosidase are summarized in [1].
(§3) The enzymes α-glucosidase (from yeast), β-glucosidases (from almond and bovine liver), α-galactosidase (from coffee beans), β-galactosidase (from bovine liver), α-mannosidase (from Jack bean), β-mannosidase (from snail), α-L-rhamnosidase (from Penicillium decumbens), α-L-fucosidase (from bovine kidney), trehalase (from porcine kidney), β-glucuronidases (from E. coli and bovine liver), amyloglucosidase (from A. niger), para-nitrophenyl glycosides, and various disaccharides were purchased from Sigma-Aldrich Co.
(§4) Brush border membranes were prepared from the rat small intestine according to the method of Kessler et al. and were assayed at pH 6.8 for rat intestinal maltase using maltose. For rat intestinal maltase, porcine kidney trehalase, and A. niger amyloglucosidase activities, the reaction mixture contained 25 mM maltose and the appropriate amount of enzyme, and the incubations were performed for 10–30 min at 37 °C. The reaction was stopped by heating at 100 °C for 3 min. After centrifugation (600 g; 10 min), the resulting reaction mixture was added to the Glucose CII-test Wako (Wako Pure Chemical Ind., Osaka, Japan). The absorbance at 505 nm was measured to determine the amount of the released D-glucose. Other glycosidase activities were determined using an appropriate para-nitrophenyl glycoside as substrate at the optimum pH of each enzyme. The reaction mixture contained 2 mM of the substrate and the appropriate amount of enzyme. The reaction was stopped by the addition of 400 mM Na2CO3. The released para-nitrophenol was measured spectrometrically at 400 nm. All reactions run in methanol.

In another assay the test system is BE2-C (neuroblastoma). In words: Cancer screening (MTT growth inhibition), BE2-C. The class given is cell-based. The conditions noted are these: 72 h; for inhibition at 25 µM / Percentage (%) cell growth inhibition: 25 µM of drug, n = 3, mean ± SEM; for inhibition at 25 µM: read-out: Percentage (%) cell growth inhibition. On the procedure: (§5) All test agents were prepared as stock solutions (20 mM) in dimethyl sulfoxide (DMSO) and stored at −20 °C. Cell lines used in the study included: HT29 (colorectal carcinoma), U87 and SJ-G2 (glioblastoma), MCF-7 (breast carcinoma), A2780 (ovarian carcinoma), H460 (lung carcinoma), A431 (skin carcinoma), Du145 (prostate carcinoma), BE2-C (neuroblastoma), MiaPaCa-2 (pancreatic carcinoma), SMA560 (spontaneous murine astrocytoma), and ADDP (Cis Res Ovarian), together with one non-tumor-derived normal breast cell line (MCF10A). All cell lines were incubated in a humidified atmosphere with 5 % CO2 at 37 °C. The cancer cell lines were maintained in Dulbecco’s modified Eagle’s medium (DMEM; Sigma, Australia) supplemented with fetal bovine serum (10%), sodium pyruvate (10 mM), penicillin (100 IUmL^−1), streptomycin (100 µg mL^−1), and L-glutamine (2 mM).
(§6) Growth inhibition was determined by plating cells in duplicate in medium (100 µL) at a density of 2500–4000 cells per well in 96-well plates. On day 0 (24 h after plating), when the cells are in logarithmic growth, medium (100 µL) with or without the test agent was added to each well. After 72 h of drug exposure, growth inhibitory effects were evaluated using the (3-(4,5-dimethyltiazol-2-yl)-2,5-diphenyltetrazolium bromide) (MTT) assay and absorbance read at 540 nm. The percentage growth inhibition was calculated at a fixed concentration of 25 µM, based on the difference between the optical density values on day 0 and those at the end of drug exposure. Each data point is the mean ± the standard error of the mean (SEM) calculated from three replicates, which were performed on separate occasions and in separate cell line passages.

The subject of assay [2] is Penicillium decumbens α-L-rhamnosidase. Briefly: Glycosidase inhibition, Penicillium decumbens α-L-rhamnosidase. To be noted: for inhibition %: in methanol. The class given is biochemical.
Description: as §1, §2, §3, §4

Assay [3] concerns HT29 (colorectal carcinoma). Briefly: Cancer screening (MTT growth inhibition), HT29. The class given is cell-based. The conditions noted are these: 72 h; for inhibition at 25 µM: HT-29, 25 µM of drug, read-out: Percentage (%) cell growth inhibition; for inhibition at 25 µM / Percentage (%) cell growth inhibition: n = 3, mean ± SEM; for Percentage (%) cell growth inhibition: 25 µM of drug. As to the method: as §5, §6

The subject of assay [4] is MiaPaCa-2 (pancreatic carcinoma). Briefly: Cancer screening (MTT growth inhibition), MIA-Pa-Ca2. The class given is cell-based. The conditions noted are these: 72 h; for inhibition at 25 µM: MIA PaCa-2, 25 µM of drug, read-out: Percentage (%) cell growth inhibition; for inhibition at 25 µM / Percentage (%) cell growth inhibition: n = 3, mean ± SEM; for Percentage (%) cell growth inhibition: 25 µM of drug. On the procedure:
as §5, §6

Another assay deals with rice α-glucosidase (Oryza sativa subsp. japonica, UniProt Q653V7). In words: Glycosidase inhibition, rice α-glucosidase. The class given is biochemical.
Chain of rice α-glucosidase (Q653V7 34-885): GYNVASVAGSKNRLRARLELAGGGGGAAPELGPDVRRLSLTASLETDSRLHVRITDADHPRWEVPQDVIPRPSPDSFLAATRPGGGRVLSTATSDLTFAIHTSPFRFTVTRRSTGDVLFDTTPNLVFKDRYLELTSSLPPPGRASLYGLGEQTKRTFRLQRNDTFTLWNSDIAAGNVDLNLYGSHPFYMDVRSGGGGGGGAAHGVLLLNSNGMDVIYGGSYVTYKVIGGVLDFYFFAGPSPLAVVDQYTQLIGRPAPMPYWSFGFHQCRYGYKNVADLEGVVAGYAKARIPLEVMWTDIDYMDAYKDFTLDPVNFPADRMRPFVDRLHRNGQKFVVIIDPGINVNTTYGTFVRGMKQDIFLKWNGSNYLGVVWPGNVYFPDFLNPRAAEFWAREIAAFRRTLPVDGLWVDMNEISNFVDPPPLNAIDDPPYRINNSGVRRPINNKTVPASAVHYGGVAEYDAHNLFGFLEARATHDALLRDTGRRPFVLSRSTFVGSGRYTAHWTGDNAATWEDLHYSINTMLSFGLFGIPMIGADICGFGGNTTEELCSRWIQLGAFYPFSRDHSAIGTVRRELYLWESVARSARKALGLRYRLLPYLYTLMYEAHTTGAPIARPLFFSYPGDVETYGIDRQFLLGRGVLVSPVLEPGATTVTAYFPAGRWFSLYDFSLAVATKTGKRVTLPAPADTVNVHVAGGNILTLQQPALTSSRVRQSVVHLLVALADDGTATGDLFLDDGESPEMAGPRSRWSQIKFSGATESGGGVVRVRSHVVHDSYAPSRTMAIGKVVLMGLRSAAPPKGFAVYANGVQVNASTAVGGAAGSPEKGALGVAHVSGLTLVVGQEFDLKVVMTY
Description: as §1, §2, §4

Setting [5] is: at 100 μM, in methanol, read-out: inhibition %.
Where [6] appears, read: at 100 μM, read-out: NI: No inhibition.
Where [7] appears, read: at 1000 μM, in methanol, read-out: inhibition %.
The mark [8] stands for this setting: at 1000 μM, read-out: NI: No inhibition.

Like-named read-outs stand apart in the source and are kept apart here.

Regarding `CC1(C)OCC(C2OC3OC(C)(C)OC3C2[B-]23OCC[NH+]2CCO3)O1` [Compound 6, 3-Deoxy-3-Boronodiethanolamine-1,2:5,6-Di-O-isopropylidene-α-D-galactofuranose], the inhibition at 100 µM is 12.4% in assay [1] (setting [5]), below 50% in assay [1] (setting [6]), 5.9% at rice α-glucosidase (setting [5]) and below 50% at rice α-glucosidase (setting [6]). The inhibition at 25 µM in the assay with BE2-C (neuroblastoma) (Homo sapiens, BE(2)-C) was determined as 2 ± 5%; in assay [3] (Homo sapiens), 10 ± 5%; in assay [4] (Homo sapiens) it was 3 ± 1%. The “NI: No inhibition” value in assay [2] (at 100 μM) was “NI (No inhibition (less than 50% inhibition at 100 μM))”. Also, the inhibition % in assay [2] (at 100 μM) was determined as 0.3%.
For Borocaptate sodium [BSH], the “NI: No inhibition” value (in assay [1] (at 1000 μM); in assay [2] (at 1000 μM); on rice α-glucosidase (at 1000 μM)) was “NI (No inhibition (less than 50% inhibition at 1000 μM))” throughout. For the same compound, the inhibition % in assay [1] (at 1000 μM, in methanol) is 19.6%; in assay [2] (at 1000 μM), 0.2%; against rice α-glucosidase (at 1000 μM, in methanol), 0%. Also, the “Percentage (%) cell growth inhibition” value in the assay on BE2-C (neuroblastoma) was determined as 10 ± 6%; in assay [3], 3 ± 2%; in assay [4], 2 ± 6%.
As to `OCC1OC(O)C(O)C(B(O)O)C1O` [Compound 7, 3-Boronic-3-Deoxy-D-galactose], the inhibition at 1000 µM in assay [1] (setting [7]) is 32.4%; in assay [1] (setting [8]), below 50%; at rice α-glucosidase (setting [7]) it was 33.8%; at rice α-glucosidase (setting [8]), below 50%. The inhibition at 25 µM was 1 ± 2% with BE2-C (neuroblastoma) (Homo sapiens, BE(2)-C); -2 ± 2% in assay [3] (Homo sapiens); 1 ± 2% in assay [4] (Homo sapiens). Also, the GI50 in the assay with BE2-C (neuroblastoma) (Homo sapiens, BE(2)-C, dose response, read-out: GI50 = Concentration that inhibits cell growth by 50%) was above 50 µM; in assay [3] (Homo sapiens, HT-29, dose response, read-out: GI50 = Concentration that inhibits cell growth by 50%) it was above 50 µM; in assay [4] (Homo sapiens, MIA PaCa-2, dose response, read-out: GI50 = Concentration that inhibits cell growth by 50%) it was above 50 µM. Further, in assay [2] (at 1000 μM), the “NI: No inhibition” value is “NI (No inhibition (less than 50% inhibition at 1000 μM))”. Also, in assay [2] (at 1000 μM), the inhibition % worked out at 0%.
For `N[C@@H](Cc1ccc(B(O)O)cc1)C(=O)O` [BPA, 4-borono-L-phenylalanine], the inhibition at 100 µM in assay [1] (setting [5]) was 7.4%; in assay [1] (setting [6]), below 50%; on rice α-glucosidase (setting [5]), 0%; at rice α-glucosidase (setting [6]) it was below 50%. The inhibition at 25 µM with BE2-C (neuroblastoma) (Homo sapiens, BE(2)-C) is 13 ± 10%; in assay [3] (Homo sapiens) it was 14%; in assay [4] (Homo sapiens), 3 ± 3%. Besides, in assay [2] (at 100 μM), the “NI: No inhibition” value was “NI (No inhibition (less than 50% inhibition at 100 μM))”. In assay [2] (at 100 μM), this compound displayed an inhibition % of 0%.
Take `N[C@@H](Cc1ccc(B(O)O)cc1)C(=O)O` [^10B-BPA]: the “NI: No inhibition” value (in assay [1] (at 100 μM); in assay [2] (at 100 μM); at rice α-glucosidase (at 100 μM)) was “NI (No inhibition (less than 50% inhibition at 100 μM))” in each case. Also, the inhibition % in assay [1] (at 100 μM, in methanol) is recorded as 0%; in assay [2] (at 100 μM) it was 0%; against rice α-glucosidase (at 100 μM, in methanol), 0%. Also, the “Percentage (%) cell growth inhibition” value is listed as 10 ± 6% with BE2-C (neuroblastoma), 15 ± 4% in assay [3] and 11 ± 3% in assay [4].
